From patent US10947273B2, “Peptides of use in the preventive and curative treatment of alopecia” (Institut Europeen de Biologie Cellulaire, priority 2015, dated 2021)
The star is where a group is joined. Palmitoyl = CCCCCCCCCCCCCCCC(=O)*

Experiments:
Type in all cases: cell-based, human
PDGF [1] = test: PDGF secretion by HFDPC (ELISA/BioPlex); conditions: 48h
Protocol: (§1) NHDF, HFDPC, HHFK and NHEM cells were treated with the peptides studied for 48h. At the end of the treatment, cell supernatants were collected and stored at −80° C. until analysis. The factors of interest secreted into the supernatant were assayed by ELISA® (R&D) or BioPlex® (BioRad®).
(§2) The results are expressed as percent increase in the concentration of the factor present in the supernatant relative to the untreated control. The intensity of the effect varies as a function of the concentration of the peptide studied and of the cell type treated.

NGF [2] = test: NGF secretion by NHDF (ELISA/BioPlex); conditions: 48h
Protocol: as §1, §2

VEGF [3] = test: VEGF secretion by NHDF (ELISA/BioPlex); conditions: 48h
Protocol: as §1, §2

SCF [4] = test: SCF secretion by NHDF (ELISA/BioPlex); conditions: 48h
Protocol: as §1, §2

HGF [5] = test: HGF secretion by NHDF (ELISA/BioPlex); conditions: 48h
Protocol: as §1, §2

VEGF [6] = test: qPCR (TLDA) VEGF gene expression in HFDPC; conditions: peptide 10^−5 M (table title), 24 hours, relative to untreated controls
Protocol: (§3) RNA was extracted and purified from cell pellets using the RNA XS Kit (Macherey-Nagel). RNA quantification was carried out with a NanoDrop device and sample quality was verified on a Bioanalyzer with RNA 6000 Nano chips (Agilent). cDNA was synthesized from 300 ng of RNA using the High-Capacity cDNA Reverse Transcription Kit (LifeTech). Quality-control qPCR assays of the cDNA were carried out in microplates on the reference gene, GAPDH, and the SIRT1 gene.
(§4) Final qPCR experiments were carried out in a 1 μl volume on microfluidic cards (TaqMan Low Density Arrays, LifeTech) and the ABI 7900HT qPCR device. Amplification reactions were performed in duplicate using 1 to 2 ng of cDNA per qPCR reaction and TaqMan Universal Master Mix II (LifeTech).
(§5) Ct values were obtained using the RQ Manager software. For analyses of qPCR results, Ct values were limited to 35 cycles and the duplicate assays are averaged. The GeneXPro software was used for the studies of stability and of selection of the best reference genes. Expression variations are calculated by the relative quantification method and are expressed as percent increase in expression of the gene of interest relative to the untreated controls.

[7] = system: genes whose expression is reduced in subjects characterized by alopecia; test: qPCR (TLDA) overall statement, genes involved in alopecia, HFDPC; conditions: summary of Table 1
Protocol: (§6) To study the effect of 9 peptides on these genes, HFDPC were treated for 24 hours with the molecules tested at 10^−7M and 10^−9M concentrations.
as §3, §4, §5

KGF [8] = test: KGF secretion by HFDPC (ELISA/BioPlex); conditions: 48h
Protocol: as §1, §2

VEGF [9] = test: VEGF secretion by HFDPC (ELISA/BioPlex); conditions: 48h
Protocol: as §1, §2

HGF [10] = test: HGF secretion by HFDPC (ELISA/BioPlex); conditions: 48h
Protocol: as §1, §2

NGF [11] = test: NGF secretion by HFDPC (ELISA/BioPlex); conditions: 10^−9 M, 48h
Protocol: as §1, §2

KGF [12] = test: qPCR (TLDA) KGF gene expression in HFDPC; parameters: dose or concentration left out as unconfirmed; conditions: peptide, 24 hours, relative to untreated controls
Protocol: as §3, §4, §5

PDGF [13] = test: qPCR (TLDA) PDGF gene expression in HFDPC; parameters: dose or concentration left out as unconfirmed; conditions: peptide, 24 hours, relative to untreated controls
Protocol: as §3, §4, §5

IGF1 = test: qPCR (TLDA) IGF1 gene expression in HFDPC; conditions: peptide 10^−9, 24 hours, relative to untreated controls
Protocol: as §6, §3, §4, §5

HGF [14] = test: HGF secretion by HHFK (ELISA/BioPlex); conditions: 10^−7 M, 48h
Protocol: as §1, §2

SCF [15] = test: SCF secretion by HHFK (ELISA/BioPlex); conditions: 10^−7 M, 48h
Protocol: as §1, §2

[16] = system: microdissected hairs from scalp surgery specimens; test: Growth of isolated hair ex vivo; conditions: ex vivo isolated hair
Protocol: (§7) This study was carried out on microdissected hairs from scalp surgery specimens from women aged 52 to 71 years. Isolated hairs were kept alive for 11 to 12 days in Williams medium, under conventional cell culture conditions (37° C., 5% CO2). […]
(§8) To evaluate the effect of (1), (6) or (9) on hair growth, the hairs were photographed and their lengths measured using image analysis software. Thus, the growth of the hairs between D0 and D11/D12 could be calculated and compared with that of the untreated control. At the end of the treatments (D11 or D12), the hairs were collected and frozen or fixed for immunolabeling and histological staining.

follicular markers = test: Follicular markers in isolated hair ex vivo (immunolabeling); conditions: end of treatment D11 or D12, value = marker increased
Protocol: as §7, §8

Row | Substance | PDGF secretion, percent increase relative to untreated control (PDGF [1]; 10^−7 M) | NGF secretion, percent increase relative to untreated control (NGF [2]; 10^−9 M) | SCF secretion, percent increase relative to untreated control (SCF [4]; 10^−7 M) | HGF secretion, percent increase relative to untreated control (HGF [5]; 10^−7 M) | HGF secretion, percent increase relative to untreated control (HGF [5]; 10^−9 M) | % stimulation VEGF gene expression (VEGF [6]) [%] | stimulation of genes whose expression is reduced in alopecia (in words) [7] | % stimulation KGF gene expression (KGF [12]) [%] | % stimulation PDGF gene expression (PDGF [13]) [%] | HGF secretion, percent increase relative to untreated control (HGF [14]) | further results
1 | Palm-Ala-Arg-Pro-Ala-Ala-NH2 (Palmitoyl-ARPAA-NH2; SMILES CCCCCCCCCCCCCCCC(=O)N[C@@H](C)C(=O)N[C@@H](CCCNC(=N)N)C(=O)N1CCC[C@H]1C(=O)N[C@@H](C)C(=O)N[C@@H](C)C(N)=O) [(4)] | PDGF 8% | NGF 18% | SCF 6% | HGF 188% | HGF 95% |  |  |  |  |  | NGF secretion, percent increase relative to untreated control (NGF [2]; 10^−7 M): NGF 12%; VEGF secretion, percent increase relative to untreated control (VEGF [3]; 10^−7 M): VEGF 9%; SCF secretion, percent increase relative to untreated control (SCF [4]; 10^−9 M): SCF 8%
2 | Palm-Ala-Arg-Pro-Ala-Lys-NH2 (Palmitoyl-ARPAK-NH2; SMILES CCCCCCCCCCCCCCCC(=O)N[C@@H](C)C(=O)N[C@@H](CCCNC(=N)N)C(=O)N1CCC[C@H]1C(=O)N[C@@H](C)C(=O)N[C@@H](CCCCN)C(N)=O) [(3)] |  | NGF 89% |  |  | HGF 5% | 83 | stimulate several genes |  |  |  | PDGF secretion, percent increase relative to untreated control (PDGF [1]; 10^−9 M): PDGF 39%; KGF secretion, percent increase relative to untreated control (KGF [8]; 10^−7 M): KGF 53%; KGF secretion, percent increase relative to untreated control (KGF [8]; 10^−9 M): KGF 45%; VEGF secretion, percent increase relative to untreated control (VEGF [9]; 10^−7 M): VEGF 9%; HGF secretion, percent increase relative to untreated control (HGF [10]; 10^−9 M): HGF 33%; NGF secretion, percent increase relative to untreated control (NGF [11]): NGF 6%; VEGF secretion, percent increase relative to untreated control (VEGF [3]; 10^−9 M): VEGF 48%
3 | Palm-Ala-Arg-Pro-Ala-Lys-OH (Palmitoyl-ARPAK-OH; SMILES CCCCCCCCCCCCCCCC(=O)N[C@@H](C)C(=O)N[C@@H](CCCNC(=N)N)C(=O)N1CCC[C@H]1C(=O)N[C@@H](C)C(=O)N[C@@H](CCCCN)C(=O)O) [(2)] |  |  | SCF 37% | HGF 13% |  | 11 | stimulate several genes | 71 | 29 | HGF 28% | % stimulation IGF1 gene expression (IGF1): 136% (10^−9); HGF secretion, percent increase relative to untreated control (HGF [10]; 10^−5 M): HGF 403%; HGF secretion, percent increase relative to untreated control (HGF [10]; 10^−7 M): HGF 565%; SCF secretion, percent increase relative to untreated control (SCF [4]; 10^−5 M): SCF 24%
4 | Palm-Arg-Pro-Ala-Lys-OH (Palmitoyl-RPAK-OH; SMILES CCCCCCCCCCCCCCCC(=O)N[C@@H](CCCNC(=N)N)C(=O)N1CCC[C@H]1C(=O)N[C@@H](C)C(=O)N[C@@H](CCCCN)C(=O)O) [Peptide (9)] | PDGF 117% |  | SCF 8% |  |  | 93 | stimulate several genes | 156 | 304 | HGF 94% | PDGF secretion, percent increase relative to untreated control (PDGF [1]; 10^−5 M): PDGF 62%; VEGF secretion, percent increase relative to untreated control (VEGF [9]; 10^−5 M): VEGF 10%; VEGF secretion, percent increase relative to untreated control (VEGF [3]; 10^−5 M): VEGF 24%; SCF secretion, percent increase relative to untreated control (SCF [15]): SCF 11%; Growth at D 11/D 12 Vs Control ([16]; 10^−7 M): No effect; Growth at D 11/D 12 Vs Control ([16]; 10^−9 M): +5%; Follicular markers increased Vs Control (follicular markers; 10^−7 M): CK15; Follicular markers increased Vs Control (follicular markers; 10^−9 M): CK15
